Assay results from US20220315574A1, “Beta-Arrestin-Modulating Compounds and Methods of Using Same” (Duke University, priority 2019, published 2022).
Where a name gives a salt, the structure may show the parent alone.

Assays:
βarr2 = βarr2 (Rattus norvegicus, UniProt P29067); test: Binding affinity (Kd) by ITC / thermal shift; design: made in house; settings: Cmpd-30 by ITC; other three by combination of ITC and thermal shift; read-out: Kd (dissociation constant), βarr2
Experimental: A high-throughput differential scanning fluorimetry-based thermal shift screen was developed to identify potential βarr small-molecule modulators present in the collection of structurally diverse, drug-like small-molecule compound library described above. The screen was performed using the StepOnePlus™ Real-Time PCR System (Applied Biosystems, Foster City, Calif.). Melting temperature changes were monitored with the use of a reporter fluorescent probe, SYPRO Orange (Thermo Fisher Scientific). Proteins were buffered in a 20 mM HEPES pH 7.5, 100 mM NaCl solution. All reactions were set up in a 96-well plate at final volumes of 20 μl. Small-molecule test compounds were plated from DMSO stock solutions into 96 well plates (1 compound/well) at a final compound concentration of 100 μM. The final DMSO concentration per well was 1%. βarr1 or βarr2 final concentration was maintained at 5 μM per well. Vehicle (DMSO), negative, and positive controls were also included in each plate. Negative controls contained SYPRO Orange in buffer by itself (no βarr protein). Three known βarr binders were individually tested under described assay conditions: ‘V2Rpp’, a phosphorylated peptide corresponding to the C-terminus of the vasopressin-2 receptor (V2R); Fab30, an antigen-binding fragment that recognizes V2Rpp bound active βarr conformation; and inositol hexakisphosphate (IP6). […]. […] The temperature was raised with a step of 0.5° C. per 30 second from 25° C. to 99° C. and fluorescence readings were taken at each interval. Melting curves were directly exported from the instrument and were analyzed using Applied Biosystems® Protein Thermal Shift™ Software. Melting temperature (Tm) was calculated by plotting the first derivative of the fluorescence emission as a function of temperature [−dF/dT]. […]
ITC measurements were made using the MicroCal iTC200 system (MicroCal, Malvern, Pa.). […] Data were analyzed using MicroCal Origin software program to obtain association constant (Ka=1/Kd), stoichiometry (N), and thermodynamic parameters such as enthalpy (ΔH) and entropy (ΔS) of binding.

[1] = target: T1, βarr2 recruitment to agonist-activated β2V2R (Homo sapiens, UniProt P32121); test: DiscoveRx PathHunter β-arrestin recruitment assay in U2OS cells; type: cell-based; settings: series of compound concentrations, 30 min pretreatment, isoproterenol dose-response
T1 construct: host or cells: U2OS
T1 sequence (P32121 whole entry): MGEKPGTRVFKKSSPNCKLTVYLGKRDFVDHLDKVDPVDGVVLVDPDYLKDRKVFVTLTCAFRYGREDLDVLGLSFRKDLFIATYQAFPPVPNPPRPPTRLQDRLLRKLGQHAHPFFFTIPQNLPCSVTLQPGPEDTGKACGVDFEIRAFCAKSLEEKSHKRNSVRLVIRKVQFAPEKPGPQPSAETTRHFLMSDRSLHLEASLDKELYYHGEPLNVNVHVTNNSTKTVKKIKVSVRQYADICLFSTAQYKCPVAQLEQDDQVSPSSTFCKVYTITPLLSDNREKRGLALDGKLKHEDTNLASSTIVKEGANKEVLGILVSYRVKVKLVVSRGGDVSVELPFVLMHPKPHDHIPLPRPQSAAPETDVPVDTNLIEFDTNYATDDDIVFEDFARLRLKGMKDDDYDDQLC
Experimental: β-arrestin recruitment to the agonist-activated receptor (02V2R) was measured using the DiscoveRx PathHunter β-arrestin assay (Ahn, S. et al. Allosteric “beta-blocker” isolated from a DNA-encoded small molecule library. Proc Natl Acad Sci U SA 114, 1708-1713, doi:10.1073/pnas.1620645114 (2017)). […] Agonist-stimulated recruitment of βarr2 to the receptor results in the formation of functionally active β-gal enzyme. Addition of substrate generates a chemiluminescence signal directly correlated to the extent of recruitment. U2OS cells co-expressing β2V2R and βarr2 were plated in 96-well clear-bottomed plates at a density of 25,000 cells per well (80 μL per well), 24 hours prior to compound treatment. On the day of experiment, cells were first treated with compound or vehicle for 30 min, followed by agonist (Iso) stimulation for 60 min at 37° C. Cells were then treated with PathHunter™ detection reagents for 90 min at 37° C., and luminescence signals were measured using a CLARIOstar microplate reader (BMG Labtech Inc., Cary, N.C.).

Sequence of βarr2 (P29067 whole entry): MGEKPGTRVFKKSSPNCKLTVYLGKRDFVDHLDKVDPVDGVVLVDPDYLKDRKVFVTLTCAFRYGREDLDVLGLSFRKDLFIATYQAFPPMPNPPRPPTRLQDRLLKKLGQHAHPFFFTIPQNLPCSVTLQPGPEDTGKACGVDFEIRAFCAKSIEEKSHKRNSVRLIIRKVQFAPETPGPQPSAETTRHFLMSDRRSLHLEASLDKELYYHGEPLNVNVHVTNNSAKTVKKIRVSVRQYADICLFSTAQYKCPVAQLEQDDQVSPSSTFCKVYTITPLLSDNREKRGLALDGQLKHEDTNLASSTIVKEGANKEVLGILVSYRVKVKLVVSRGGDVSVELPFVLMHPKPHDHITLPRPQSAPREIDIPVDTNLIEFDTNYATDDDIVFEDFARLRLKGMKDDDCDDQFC

Row | SMILES | Kd (βarr2) | maximal agonist induced βarr recruitment response [1]
1 | C=C1C(=O)C23[C@H](O)C1CC[C@H]2[C@]12COC3(O)[C@@H](O)[C@@H]1C(C)(C)CC[C@@H]2O [Cmpd-5, (1R,2S,10S,11R,15S,18R)-9,10,15,18-tetrahydroxy-12,12-dimethyl-6-methylidene-17-oxapentacyclo[7.6.2.15,8.01,11.02,8]octadecan-7-one] | 0.261 µM | significantly diminished
2 | CN(C)c1n/c(=N/Cc2ccco2)ss1 [Cmpd-30, 5-(furan-2-ylmethylimino)-N,N-dimethyl-1,2,4-dithiazol-3-amine;hydrobromide] | 0.002 µM | significantly diminished
3 | C=C1C(=O)OC2CC3(C)OC3CC/C(C)=C\C(OC(C)=O)C12 (stereo not drawn) [Cmpd-64, [(8Z)-3,8-dimethyl-12-methylidene-13-oxo-4,14-dioxatricyclo[9.3.0.03,5]tetradec-8-en-10-yl] acetate] | 0.104 µM | significantly diminished
